Data published in ChEMBL document CHEMBL4152249, “Alkoxyphenylthiazoles with broad-spectrum activity against multidrug-resistant gram-positive bacterial pathogens” (Eur J Med Chem, 2018).
In brackets after ≈: the same amount, converted by molar mass.

Assays:
Staphylococcus aureus [1] = assay: Antibacterial activity against methicillin-resistant Staphylococcus aureus 2658 RCMB after 20 hrs by broth microdilution assay; format: functional
Staphylococcus aureus [2] = assay: Antibacterial activity against Staphylococcus aureus after 20 hrs by broth microdilution assay; format: functional
Staphylococcus aureus [3] = assay: Bactericidal activity against methicillin-sensitive Staphylococcus aureus NRS107 incubated for 20 hrs followed by re-plating on tryptic soy agar plates at 37 degC for 18 hrs by broth microdilution assay; format: functional
Staphylococcus aureus [4] = assay: Antibacterial activity against methicillin-resistant Staphylococcus aureus after 20 hrs by broth microdilution assay; format: functional
Staphylococcus aureus [5] = assay: Bactericidal activity against linezolid-resistant Staphylococcus aureus NRS119 incubated for 20 hrs followed by re-plating on tryptic soy agar plates at 37 degC for 18 hrs by broth microdilution assay; format: functional
Staphylococcus aureus [6] = assay: Bactericidal activity against Staphylococcus aureus USA400 NRS123 incubated for 20 hrs followed by re-plating on tryptic soy agar plates at 37 degC for 18 hrs by broth microdilution assay; format: functional
Staphylococcus aureus [7] = assay: Bactericidal activity against Staphylococcus aureus USA300 NRS384 incubated for 20 hrs followed by re-plating on tryptic soy agar plates at 37 degC for 18 hrs by broth microdilution assay; format: functional
Staphylococcus aureus [8] = assay: Antibacterial activity against methicillin-resistant Staphylococcus aureus NRS385 after 20 hrs by broth microdilution assay; format: functional; conditions: NRS385, 20 h
Staphylococcus aureus [9] = assay: Bactericidal activity against methicillin-resistant Staphylococcus aureus NRS385 incubated for 20 hrs followed by re-plating on tryptic soy agar plates at 37 degC for 18 hrs by broth microdilution assay; format: functional
Staphylococcus aureus [10] = assay: Antibacterial activity against methicillin-resistant Staphylococcus aureus NRS386 after 20 hrs by broth microdilution assay; format: functional; conditions: NRS386, 20 h
Staphylococcus aureus [11] = assay: Bactericidal activity against methicillin-resistant Staphylococcus aureus NRS386 incubated for 20 hrs followed by re-plating on tryptic soy agar plates at 37 degC for 18 hrs by broth microdilution assay; format: functional
Staphylococcus aureus [12] = assay: Antibacterial activity against vancomycin-resistant Staphylococcus aureus VRSA10 after 20 hrs by broth microdilution assay; format: functional; conditions: VRSA10, 20 h
Staphylococcus aureus [13] = assay: Bactericidal activity against vancomycin-resistant Staphylococcus aureus VRSA10 incubated for 20 hrs followed by re-plating on tryptic soy agar plates at 37 degC for 18 hrs by broth microdilution assay; format: functional
Staphylococcus aureus [14] = assay: Antibacterial activity against vancomycin-resistant Staphylococcus aureus VRSA12 after 20 hrs by broth microdilution assay; format: functional; conditions: VRSA12, 20 h
Staphylococcus aureus [15] = assay: Bactericidal activity against vancomycin-resistant Staphylococcus aureus VRSA12 incubated for 20 hrs followed by re-plating on tryptic soy agar plates at 37 degC for 18 hrs by broth microdilution assay; format: functional
[16] = system: Staphylococcus epidermidis; assay: Antibacterial activity against methicillin-resistant Staphylococcus epidermidis NRS101 after 20 hrs by broth microdilution assay; format: functional; conditions: NRS101, 20 h
[17] = system: Staphylococcus epidermidis; assay: Bactericidal activity against methicillin-resistant Staphylococcus epidermidis NRS101 incubated for 20 hrs followed by re-plating on tryptic soy agar plates at 37 degC for 18 hrs by broth microdilution assay; format: functional
Enterococcus faecalis [18] = assay: Antibacterial activity against vancomycin-resistant Enterococcus faecalis ATCC 51299 after 20 hrs by broth microdilution assay; format: functional; conditions: ATCC 51299, 20 h
Enterococcus faecalis [19] = assay: Bactericidal activity against vancomycin-resistant Enterococcus faecalis ATCC 51299 incubated for 20 hrs followed by re-plating on tryptic soy agar plates at 37 degC for 18 hrs by broth microdilution assay; format: functional
Enterococcus faecium [20] = assay: Antibacterial activity against vancomycin-resistant Enterococcus faecium ATCC 700221 after 20 hrs by broth microdilution assay; format: functional; conditions: ATCC 700221, 20 h
Enterococcus faecium [21] = assay: Bactericidal activity against vancomycin-resistant Enterococcus faecium ATCC 700221 incubated for 20 hrs followed by re-plating on tryptic soy agar plates at 37 degC for 18 hrs by broth microdilution assay; format: functional
Listeria monocytogenes [22] = assay: Antibacterial activity against Listeria monocytogenes ATCC 19111 after 20 hrs by broth microdilution assay; format: functional; conditions: ATCC 19111, 20 h
Listeria monocytogenes [23] = assay: Bactericidal activity against Listeria monocytogenes ATCC 19111 incubated for 20 hrs followed by re-plating on tryptic soy agar plates at 37 degC for 18 hrs by broth microdilution assay; format: functional
Streptococcus pneumoniae [24] = assay: Antibacterial activity against cephalosporin-resistant Streptococcus pneumoniae ATCC 51916 after 20 hrs by broth microdilution assay; format: functional; conditions: ATCC 51916, 20 h
Streptococcus pneumoniae [25] = assay: Bactericidal activity against cephalosporin-resistant Streptococcus pneumoniae ATCC 51916 incubated for 20 hrs followed by re-plating on tryptic soy agar plates at 37 degC for 18 hrs by broth microdilution assay; format: functional
Streptococcus pneumoniae [26] = assay: Antibacterial activity against methicillin-resistant Streptococcus pneumoniae ATCC 700677 after 20 hrs by broth microdilution assay; format: functional; conditions: ATCC 700677, 20 h
Streptococcus pneumoniae [27] = assay: Bactericidal activity against methicillin-resistant Streptococcus pneumoniae ATCC 700677 incubated for 20 hrs followed by re-plating on tryptic soy agar plates at 37 degC for 18 hrs by broth microdilution assay; format: functional
Caco-2 = assay: Cytotoxicity against human Caco2 cells assessed as effect on cell viability up to 64 ug/ml after 2 hrs by MTS assay; format: cell-based; conditions: caco-2, 2 h

## CCCCCCCCOc1ccc(-c2nc(C)c(-c3ccnc(NC(=N)N4CCN(C)CC4)n3)s2)cc1
Staphylococcus aureus [1]
  MIC: 0.78 µg/mL (≈ 1.5 µM)
Staphylococcus aureus [2]
  MIC: 16 µg/mL (≈ 30.7 µM)
Staphylococcus aureus [3]
  MBC: > 64 µg/mL
Staphylococcus aureus [4]
  MIC: 16 to 32 µg/mL (≈ 30.7 to 61.3 µM)
Staphylococcus aureus [5]
  MBC: 32 µg/mL (≈ 61.3 µM)
Staphylococcus aureus [6]
  MBC: 32 µg/mL (≈ 61.3 µM)
Staphylococcus aureus [7]
  MBC: 16 µg/mL (≈ 30.7 µM)
Staphylococcus aureus [8]
  MIC: 16 µg/mL (≈ 30.7 µM)
Staphylococcus aureus [9]
  MBC: 16 µg/mL (≈ 30.7 µM)
Staphylococcus aureus [10]
  MIC: 16 µg/mL (≈ 30.7 µM)
Staphylococcus aureus [11]
  MBC: 16 µg/mL (≈ 30.7 µM)
Staphylococcus aureus [12]
  MIC: 8 µg/mL (≈ 15.3 µM)
Staphylococcus aureus [13]
  MBC: 8 µg/mL (≈ 15.3 µM)
Staphylococcus aureus [14]
  MIC: 16 µg/mL (≈ 30.7 µM)
Staphylococcus aureus [15]
  MBC: 16 µg/mL (≈ 30.7 µM)
[16]
  MIC: 8 µg/mL (≈ 15.3 µM)
[17]
  MBC: 8 µg/mL (≈ 15.3 µM)
Enterococcus faecalis [18]
  MIC: 16 µg/mL (≈ 30.7 µM)
Enterococcus faecalis [19]
  MBC: 64 µg/mL (≈ 123 µM)
Enterococcus faecium [20]
  MIC: 16 µg/mL (≈ 30.7 µM)
Enterococcus faecium [21]
  MBC: 16 µg/mL (≈ 30.7 µM)
Listeria monocytogenes [22]
  MIC: 4 µg/mL (≈ 7.67 µM)
Listeria monocytogenes [23]
  MBC: 8 µg/mL (≈ 15.3 µM)
Streptococcus pneumoniae [24]
  MIC: 32 µg/mL (≈ 61.3 µM)
Streptococcus pneumoniae [25]
  MBC: 32 µg/mL (≈ 61.3 µM)
Streptococcus pneumoniae [26]
  MIC: 16 µg/mL (≈ 30.7 µM)
Streptococcus pneumoniae [27]
  MBC: 32 µg/mL (≈ 61.3 µM)
Caco-2
  Activity: Non-Toxic

## CCCCCCCCOc1ccc(-c2nc(C)c(-c3ccnc(NN)n3)s2)cc1
Staphylococcus aureus [1]
  MIC: 3.12 µg/mL (≈ 7.58 µM)

## CCCCCCCOc1ccc(-c2nc(C)c(-c3ccnc(NN4CCOCC4)n3)s2)cc1
Staphylococcus aureus [1]
  MIC: 25 µg/mL (≈ 53.5 µM)

## CCCCCCCOc1ccc(-c2nc(C)c(-c3ccnc(NC(=N)NC)n3)s2)cc1
Staphylococcus aureus [1]
  MIC: > 50 µg/mL

## CCCCCCCCOc1ccc(-c2nc(C)c(-c3ccnc(NC(=N)N(C)C)n3)s2)cc1
Staphylococcus aureus [1]
  MIC: 1.56 µg/mL (≈ 3.34 µM)
Staphylococcus aureus [2]
  MIC: 8 µg/mL (≈ 17.1 µM)
Staphylococcus aureus [3]
  MBC: 8 µg/mL (≈ 17.1 µM)
Staphylococcus aureus [4]
  MIC: 8 to 16 µg/mL (≈ 17.1 to 34.3 µM)
Staphylococcus aureus [5]
  MBC: 16 µg/mL (≈ 34.3 µM)
Staphylococcus aureus [6]
  MBC: 16 µg/mL (≈ 34.3 µM)
Staphylococcus aureus [7]
  MBC: 16 µg/mL (≈ 34.3 µM)
Staphylococcus aureus [8]
  MIC: 16 µg/mL (≈ 34.3 µM)
Staphylococcus aureus [9]
  MBC: 16 µg/mL (≈ 34.3 µM)
Staphylococcus aureus [10]
  MIC: 16 µg/mL (≈ 34.3 µM)
Staphylococcus aureus [11]
  MBC: 16 µg/mL (≈ 34.3 µM)
Staphylococcus aureus [12]
  MIC: 16 µg/mL (≈ 34.3 µM)
Staphylococcus aureus [13]
  MBC: 16 µg/mL (≈ 34.3 µM)
Staphylococcus aureus [14]
  MIC: 16 µg/mL (≈ 34.3 µM)
Staphylococcus aureus [15]
  MBC: 16 µg/mL (≈ 34.3 µM)
[16]
  MIC: 4 µg/mL (≈ 8.57 µM)
[17]
  MBC: 8 µg/mL (≈ 17.1 µM)
Enterococcus faecalis [18]
  MIC: 32 µg/mL (≈ 68.6 µM)
Enterococcus faecalis [19]
  MBC: 32 µg/mL (≈ 68.6 µM)
Enterococcus faecium [20]
  MIC: 8 µg/mL (≈ 17.1 µM)
Enterococcus faecium [21]
  MBC: 8 µg/mL (≈ 17.1 µM)
Listeria monocytogenes [22]
  MIC: 4 µg/mL (≈ 8.57 µM)
Listeria monocytogenes [23]
  MBC: 8 µg/mL (≈ 17.1 µM)
Streptococcus pneumoniae [24]
  MIC: 16 µg/mL (≈ 34.3 µM)
Streptococcus pneumoniae [25]
  MBC: 16 µg/mL (≈ 34.3 µM)
Streptococcus pneumoniae [26]
  MIC: 16 µg/mL (≈ 34.3 µM)
Streptococcus pneumoniae [27]
  MBC: 32 µg/mL (≈ 68.6 µM)
Caco-2
  Activity: Non-Toxic

## CCCCCCCOc1ccc(-c2nc(C)c(-c3ccnc(NC(=N)N)n3)s2)cc1
Staphylococcus aureus [1]
  MIC: 1.56 µg/mL (≈ 3.67 µM)

## CCCCCCCCOc1ccc(-c2nc(C)c(-c3ccnc(N)n3)s2)cc1
Staphylococcus aureus [1]
  MIC: > 50 µg/mL

## CCCCCCCCOc1ccc(-c2nc(C)c(-c3ccnc(NC)n3)s2)cc1
Staphylococcus aureus [1]
  MIC: > 50 µg/mL

## CCCCCCCCOc1ccc(-c2nc(C)c(-c3ccnc(NC(=N)NC)n3)s2)cc1
Staphylococcus aureus [1]
  MIC: > 50 µg/mL

## CCCCCCCOc1ccc(-c2nc(C)c(-c3ccnc(NN)n3)s2)cc1
Staphylococcus aureus [1]
  MIC: 3.12 µg/mL (≈ 7.85 µM)
Staphylococcus aureus [2]
  MIC: 16 µg/mL (≈ 40.2 µM)
Staphylococcus aureus [3]
  MBC: > 64 µg/mL
Staphylococcus aureus [4]
  MIC: 32 µg/mL (≈ 80.5 µM)
Staphylococcus aureus [5]
  MBC: 64 µg/mL (≈ 161 µM)
Staphylococcus aureus [6]
  MBC: > 64 µg/mL
Staphylococcus aureus [7]
  MBC: > 64 µg/mL
Staphylococcus aureus [8]
  MIC: 32 µg/mL (≈ 80.5 µM)
Staphylococcus aureus [9]
  MBC: 64 µg/mL (≈ 161 µM)
Staphylococcus aureus [10]
  MIC: 32 µg/mL (≈ 80.5 µM)
Staphylococcus aureus [11]
  MBC: > 64 µg/mL
Staphylococcus aureus [12]
  MIC: 64 µg/mL (≈ 161 µM)
Staphylococcus aureus [13]
  MBC: > 64 µg/mL
Staphylococcus aureus [14]
  MIC: 64 µg/mL (≈ 161 µM)
Staphylococcus aureus [15]
  MBC: > 64 µg/mL
[16]
  MIC: 64 µg/mL (≈ 161 µM)
[17]
  MBC: 64 µg/mL (≈ 161 µM)
Enterococcus faecalis [18]
  MIC: > 64 µg/mL
Enterococcus faecalis [19]
  MBC: > 64 µg/mL
Enterococcus faecium [20]
  MIC: 64 µg/mL (≈ 161 µM)
Enterococcus faecium [21]
  MBC: > 64 µg/mL
Listeria monocytogenes [22]
  MIC: 16 µg/mL (≈ 40.2 µM)
Listeria monocytogenes [23]
  MBC: > 64 µg/mL
Streptococcus pneumoniae [24]
  MIC: > 64 µg/mL
Streptococcus pneumoniae [25]
  MBC: > 64 µg/mL
Streptococcus pneumoniae [26]
  MIC: > 64 µg/mL
Streptococcus pneumoniae [27]
  MBC: > 64 µg/mL
